Patent US8093258B2, “Use of urokinase inhibitors for the treatment and/or prevention of neuropathological diseases” (Wilex AG, priority 2005, dated 2012)

Tests used:
ALS = ALS treatment with riluzole; cited from earlier work
FALS mice (G93A) = test: Treatment of G93A FALS mice with uPA inhibitor WX-C340 (survival analysis, disease progression); assay type: in vivo; details: 10 mg WX-C340 i.p. daily
Method: Kaplan-Meyer-Analysis, G93A-ALS-model: Comparison of the survival of control group animals (N=42) with animals treated with 10 mg/kg WX-C340 i.p. Daily (treatment start day 30, n=18).
FALS mice (G93A) begin to show behavioral symptoms at about 90 days of age while G85R mice develop symptoms at about 8 months of age. The initial symptoms is a high frequency resting tremor. This progresses to gait abnormalities and uncoordinated movements. Later the mice begin to show paralysis of the hind limbs, eventually progressing to paralysis of the forelimbs and finally to complete paralysis. Animals were sacrificed when they were unable to roll over within 10 seconds of being pushed on their side. This time point is taken as the time of death.

## Nc1nc2ccc(OC(F)(F)F)cc2s1 [riluzole]
ALS
  prolongation of life: ca. 3 months

## Cl.N=C(N)Nc1ccc(CNC(=O)CNC(=O)[C@@H](CO)NS(=O)(=O)Cc2ccc(Cl)cc2)cc1 [WX-C340, 4-chlorobenzyl-sulfonyl-(D)-Ser-Gly-(4-guanidinobenzyl)amide hydrochloride]
FALS mice (G93A)
  progression of disease (onset of paralysis of the front legs): delays the progression of disease
FALS mice (G93A); treatment start day 30, versus control group
  survival of the animals (Kaplan-Meyer analysis, FIG. 4): significantly improves the survival
